Assay results taken from patent US7820693B2, “1-(2H)-isoquinolone derivative” (Chugai Seiyaku Kabushiki Kaisha, priority 2005, dated 2010).

System: not listed separately
Assay: Measurement of solubility (HPLC of filtrate)
Conditions: 50 mM sodium citrate-HCl buffer (pH 4.0), pH 4, aqueous buffer, thermodynamic from solid
Experimental: Measurement was carried out by preparing a four-point calibration curve (4,000 μM, 1,000 μM, 250 μM, and 31.3 μM) according to the internal standard method. A sample solution (100% DMSO) was freeze-dried, and each solution was then added thereto. The obtained mixture was stirred for 2 hours. Thereafter, a solution in which the sample had been dissolved was filtrated, and the filtrate was then analyzed with an analyzer. As an analysis method, the filtrate was measured by HPLC (HPLC). As dissolving solutions, a saline solution or a 50 mM sodium citrate-HCl buffer (pH 4.0) solution were used.

Row | SMILES | solubility at 2 h [µM]
1 | CNCC(=O)OC[C@@H]1CN(c2ccc3cc(-c4ccccc4C(F)(F)F)[nH]c(=O)c3c2)C(=O)O1.Cl [Example B20, (S)-2-oxo-3-[1-oxo-3-(2-trifluoromethylphenyl)-1,2-dihydroisoquinolin-7-yl]oxazolidin-5-ylmethyl methylaminoacetate hydrochloride] | > 2000
2 | CC(C)[C@H](N)C(=O)OC[C@H]1CN(c2ccc3cc(-c4ccccc4C(F)(F)F)[nH]c(=O)c3c2)C(=O)O1.Cl [Example B9, (R)-2-oxo-3-[1-oxo-3-(2-trifluoromethylphenyl)-1,2-dihydroisoquinolin-7-yl]oxazolidin-5-ylmethyl(S)-2-amino-3-methyl-butanoate hydrochloride] | > 2000

Same assay, conditions: no asterisk: saline solution, stirred 2 hours

Row | SMILES | Solubility [µM]
3 | CC(C)(OC(=O)c1ccccc1C(=O)[O-])[C@@H]1CN(c2ccc3cc(-c4ccccc4C(F)(F)F)[nH]c(=O)c3c2)C(=O)O1.[Na+] [Example C6] | >2000

Same assay, conditions: saline solution, saline or isotonic, thermodynamic from solid

Row | SMILES | solubility at 2 h [µM]
4 | O=C(OCCOCCOCCOCCOCCOCCO)OC[C@@H]1CN(c2ccc3cc(-c4ccccc4C(F)(F)F)[nH]c(=O)c3c2)C(=O)O1 [Example C45, 2-[2-(2-{2-[2-(2-hydroxyethoxy)ethoxy]ethoxy}ethoxy)ethoxy]ethyl carbonate (S)-2-oxo-3-[1-oxo-3-(2-trifluoromethylphenyl)-1,2-dihydroisoquinolin-7-yl]oxazolidin-5-ylmethyl ester] | > 2000

System: human colon cancer cell line HCT116
Assay: Measurement of cell growth inhibitory activity (Cell Counting Kit-8)
Assay type: cell-based
Conditions: HCT-116, 96 h, HCT116, 2,000 cells/well, cultured 4 days
Experimental: Cancer cell growth inhibitory activity was measured using Cell Counting Kit-8 manufactured by Dojindo Laboratories. The human colon cancer cell line HCT116 obtained from American Type Culture Collection (Virginia, U.S.A) was inoculated in a 96-well culture plate at a concentration of 2,000 cells/well. Thereafter, a certain concentration of compound was added thereto, and the obtained mixture was then cultured at 37° C. in 5% CO2, 95% air for 4 days. On the 4th day of the culture, a Cell Counting Kit-8 solution was added to the culture product, and absorbance (measurement wavelength: 450 nm; reference wavelength: 615 nm) was measured in accordance with protocols included with the kit. Thereafter, 50% growth inhibitory concentration (IC50) was calculated.

Row | SMILES | IC50 [µM]
5 | O=C1O[C@H](CO)CN1c1ccc2cc(-c3ccccc3OC(F)(F)F)[nH]c(=O)c2c1 [Example 27, 7-((S)-5-hydroxymethyl-2-oxooxazolidin-3-yl)-3-(2-trifluoromethoxyphenyl)-2H-isoquinolin-1-one] | 0.021
6 | O=C1OC(CCO)CN1c1ccc2cc(-c3ccccc3C(F)(F)F)[nH]c(=O)c2c1 (stereo not shown) [Example 29, 7-[5-(2-hydroxyethyl)-2-oxooxazolidin-3-yl]-3-(2-trifluoromethylphenyl)-2H-isoquinolin-1-one] | 0.091
7 | O=C(OC[C@@H]1COC(=O)N1c1ccc2cc(-c3ccccc3C(F)(F)F)[nH]c(=O)c2c1)c1ccccc1 [Example 11, (R)-2-oxo-3-[1-oxo-3-(2-trifluoromethylphenyl)-1,2-dihydroisoquinolin-7-yl]oxazolidin-4-ylmethyl benzoate] | 0.45
8 | CN1C(=O)N(c2ccc3cc(-c4ccccc4C(F)(F)F)[nH]c(=O)c3c2)C[C@@H]1CO [Example 36, 7-((R)-4-hydroxymethyl-3-methyl-2-oxoimidazolidin-1-yl)-3-(2-trifluoromethylphenyl)-2H-isoquinolin-1-one] | 0.31
9 | CC(=O)NCC1CN(c2ccc3cc(-c4ccccc4C(F)(F)F)[nH]c(=O)c3c2)C(=O)O1 (stereo not shown) [Example 32, N-{2-oxo-3-[1-oxo-3-(2-trifluoromethylphenyl)-1,2-dihydroisoquinolin-7-yl]oxazolidin-5-ylmethyl}acetamide] | 0.53
10 | CN1C(=O)N(c2ccc3cc(-c4ccccc4C(F)(F)F)[nH]c(=O)c3c2)C[C@@H]1COCc1ccccc1 [Example 35, 7-((R)-4-benzyloxymethyl-3-methyl-2-oxoimidazolidin-1-yl)-3-(2-trifluoromethylphenyl)-2H-isoquinolin-1-one] | 0.96
11 | O=C1O[C@@H](CO)CN1c1ccc2cc(-c3ccccc3C(F)(F)F)[nH]c(=O)c2c1 [Example 14, 7-((R)-5-hydroxymethyl-2-oxooxazolidin-3-yl)-3-(2-trifluoromethylphenyl)-2H-isoquinolin-1-one] | 0.3
12 | O=C1C=C(OCc2ccccc2)CN1c1ccc2cc(-c3ccccc3C(F)(F)F)[nH]c(=O)c2c1 [Example 8, 7-(4-benzyloxy-2-oxo-2,5-dihydropyrrol-1-yl)-3-(2-trifluoromethylphenyl)-2H-isoquinolin-1-one] | 0.2
13 | O=C1CCCN1c1ccc2cc(-c3ccccc3C(F)(F)F)[nH]c(=O)c2c1 [Example 15, 7-(2-oxopyrrolidin-1-yl)-3-(2-trifluoromethylphenyl)-2H-isoquinolin-1-one] | 0.11
14 | O=C1OC(CN2CCOCC2)CN1c1ccc2cc(-c3ccccc3C(F)(F)F)[nH]c(=O)c2c1 (stereo not shown) [Example 33, 7-(5-morpholin-4-ylmethyl-2-oxooxazolidin-3-yl)-3-(2-trifluoromethylphenyl)-2H-isoquinolin-1-one] | 0.29
15 | O=C1N(CCO)CCN1c1ccc2cc(-c3ccccc3C(F)(F)F)[nH]c(=O)c2c1 [Example 9, 7-[3-(2-hydroxyethyl)-2-oxoimidazolidin-1-yl]-3-(2-trifluoromethylphenyl)-2H-isoquinolin-1-one] | 0.53

System: human colon cancer cell line HCT116 transplanted into the inguinal subcutis
Assay: Measurement of antitumor effect in tumor-bearing mouse
Assay type: in vivo, BALB/c nude mouse
Conditions: HCT116 xenograft, 300 mg/kg orally, twice (day 0 and 7 days after), vs control group
Experimental: A representative example of the compound group of the present invention was measured in terms of antitumor effect.
Such antitumor effect was examined, using a tumor-bearing mouse produced by transplanting the human colon cancer cell line HCT116 obtained from American Type Culture Collection (Virginia, U.S.A) into the inguinal subcutis of a BALB/c nude mouse purchased from Charles River Laboratories Japan, Inc. The purchased nude mouse was quarantined for 1 week. Thereafter, approximately 5×10^6 HCT116 cells were transplanted subcutaneously. When the size of a tumor thereof became 200 mm^3, the mouse was subjected to the present experiment.
Each compound was suspended in a solution to be administered, and 0.2 ml of the solution was orally administered. Such administration was carried out twice in total, that is, on the initiation date of administration and 7 days after the first administration. The antitumor effect was calculated as a tumor growth inhibition by comparing the agent-treated group with a control group in terms of tumor growth, on 14 days after the initiation date of administration. Tumor growth inhibition (TGI)=(1−the tumor growth amount of agent-treated group/the tumor growth amount of control group)×100(%) The results are shown in Table 7.

Row | SMILES | TGI (%) obtained 14 days after administration [%]
16 | O=C1O[C@@H](CO)CN1c1ccc2cc(-c3ccccc3C(F)(F)F)[nH]c(=O)c2c1 [Example 14, 7-((R)-5-hydroxymethyl-2-oxooxazolidin-3-yl)-3-(2-trifluoromethylphenyl)-2H-isoquinolin-1-one] | 113
